# Reference: BindingDB's records for doi:10.1016/j.bmcl.2009.08.023 (Roche Palo Alto, 2009)
# Biological target: Genome polyprotein (Hepatitis C virus genotype 1b (isolate Con1), UniProt Q9WMX2)
# Test: Inhibition of […] 1b con1 NS5B polymerase assessed as [3H]UTP incorporation into acid insoluble RNA product
# Sequence of Genome polyprotein (Q9WMX2 2420-3010 limits assumed): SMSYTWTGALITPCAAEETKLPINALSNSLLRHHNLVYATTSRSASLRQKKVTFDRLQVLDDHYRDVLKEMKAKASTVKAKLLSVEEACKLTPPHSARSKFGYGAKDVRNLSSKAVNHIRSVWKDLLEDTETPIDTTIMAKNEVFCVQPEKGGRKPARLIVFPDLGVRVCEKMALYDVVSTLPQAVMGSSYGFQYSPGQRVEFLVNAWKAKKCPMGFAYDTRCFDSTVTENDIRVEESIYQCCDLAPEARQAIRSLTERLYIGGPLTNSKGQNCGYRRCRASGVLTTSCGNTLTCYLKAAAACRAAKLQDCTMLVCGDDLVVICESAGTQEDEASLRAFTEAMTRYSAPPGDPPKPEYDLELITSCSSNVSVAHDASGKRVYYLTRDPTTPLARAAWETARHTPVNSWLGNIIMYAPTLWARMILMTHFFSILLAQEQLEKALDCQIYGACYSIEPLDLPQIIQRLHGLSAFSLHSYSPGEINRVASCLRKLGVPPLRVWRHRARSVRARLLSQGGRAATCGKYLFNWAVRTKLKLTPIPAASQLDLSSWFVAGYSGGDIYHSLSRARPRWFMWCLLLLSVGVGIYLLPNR
row,SMILES,IC50
1,"CC(C)(C)[C@H]1C(=O)C(C2=Nc3ccc(NS(C)(=O)=O)cc3S(=O)(=O)C2)C(=O)N1Cc1ccc(F)cc1F (stereo partly drawn) [N-{3-[(S)-5-tert-Butyl-1-(2,4-difluoro-benzyl)-4-hydroxy-2-oxo-2,5-dihydro-1H-pyrrol-3-yl]-1,1-dioxo-1,4-dihydro-1lambda*6*-benzo[1,4]thiazin-7-yl}-methanesulfonamide]",13 nM
2,"CC(C)(C)CCN1C(=O)C(C2=Nc3ccc(NS(C)(=O)=O)cc3S(=O)(=O)C2)C(=O)[C@@H]1C(C)(C)C (stereo partly drawn) [N-{3-[(S)-5-tert-Butyl-1-(3,3-dimethyl-butyl)-4-hydroxy-2-oxo-2,5-dihydro-1H-pyrrol-3-yl]-1,1-dioxo-1,4-dihydro-1lambda*6*-benzo[1,4]thiazin-7-yl}-methanesulfonamide]",8 nM
3,"CC(C)(C)[C@H]1C(=O)C(C2=Nc3ccc(NS(C)(=O)=O)cc3S(=O)(=O)C2)C(=O)N1Cc1ccccc1 (stereo partly drawn) [N-[3-((S)-1-Benzyl-5-tert-butyl-4-hydroxy-2-oxo-2,5-dihydro-1H-pyrrol-3-yl)-1,1-dioxo-1,4-dihydro-1lambda*6*-benzo[1,4]thiazin-7-yl]-methanesulfonamide]",8 nM
4,"CC(C)CCN1C(=O)C(C2=Nc3ccc(NS(C)(=O)=O)cc3S(=O)(=O)C2)C(=O)[C@@H]1C(C)(C)C (stereo partly drawn) [N-{3-[(S)-5-tert-Butyl-4-hydroxy-1-(3-methyl-butyl)-2-oxo-2,5-dihydro-1H-pyrrol-3-yl]-1,1-dioxo-1,4-dihydro-1lambda*6*-benzo[1,4]thiazin-7-yl}-methanesulfonamide]",5 nM

# Continued by falling IC50, values first:
row,IC50,SMILES
1,5 nM,"CC(C)(C)[C@H]1C(=O)C(C2=Nc3ccc(NS(C)(=O)=O)cc3S(=O)(=O)C2)C(=O)N1Cc1ccc(F)c(Cl)c1 (stereo partly drawn) [N-{3-[(S)-5-tert-Butyl-1-(3-chloro-4-fluoro-benzyl)-4-hydroxy-2-oxo-2,5-dihydro-1H-pyrrol-3-yl]-1,1-dioxo-1,4-dihydro-1lambda*6*-benzo[1,4]thiazin-7-yl}-methanesulfonamide]"
2,4 nM,"CC(=O)C1C(C2C(=O)[C@H](C(C)(C)C)N(Cc3ccc(F)cc3)C2=O)=Nc2ccc(NS(C)(=O)=O)cc2S1(=O)=O (stereo partly drawn) [N-{2-Acetyl-3-[(S)-5-tert-butyl-1-(4-fluoro-benzyl)-4-hydroxy-2-oxo-2,5-dihydro-1H-pyrrol-3-yl]-1,1-dioxo-1,4-dihydro-1lambda*6*-benzo[1,4]thiazin-7-yl}-methanesulfonamide]"
3,4 nM,"COc1cc(CN2C(=O)C(C3=Nc4ccc(NS(C)(=O)=O)cc4S(=O)(=O)C3)C(=O)[C@@H]2C(C)(C)C)ccc1F (stereo partly drawn) [N-{3-[(S)-5-tert-Butyl-1-(4-fluoro-3-methoxy-benzyl)-4-hydroxy-2-oxo-2,5-dihydro-1H-pyrrol-3-yl]-1,1-dioxo-1,4-dihydro-1lambda*6*-benzo[1,4]thiazin-7-yl}-methanesulfonamide]"
